Measured values reported in US9211310B2, “Use of a Chinese medicine composition in preparing medicaments for treating secondary prevention of myocardial infarction” (TASLY PHARMACEUTICAL GROUP CO., LTD, priority 2010, dated 2015).

Tested on: patients after acute myocardial infarction
Assay: TCM symptom score, total and single (chest pain, chest tightness, short breath, fatigue, palpitation, spontaneous perspiration, pale complexion), same clinical trial
Type: in vivo, human
Conditions: for chest pain score 0, number of patients / chest pain score 0, percent of patients / chest pain score 3, number of patients / chest pain score 3, percent of patients / chest pain score 6, number of patients / chest pain score 6, percent of patients / chest pain score 9, number of patients / chest pain score 9, percent of patients / chest tightness score 0, number of patients / chest tightness score 0, percent of patients / chest tightness score 3, number of patients / chest tightness score 3, percent of patients / chest tightness score 6, number of patients / chest tightness score 6, percent of patients / chest tightness score 9, number of patients / chest tightness score 9, percent of patients: 12 months after treatment
Source text: 3508 patients who were in accordance with the diagnostic standards of AMI for 28 days to 2 years and differentiated as Qi deficiency and blood stagnation syndrome by TCM were studied. 0.5 g Chinese medicine composition prepared by the method of EXAMPLE 1 (Coded as QSYQ) was administrated half an hour after meal, 3 times per day.
They included the overall survival time, angina pectoris score, TCM symptom score and life quality score, where angina pectoris score, TCM symptom score and life quality score were evaluated at randomization, in 1st, 3rd, 6th, 9th, 12th month after treatment and 18th month after follow-up.
The analysis method referred to the angina pectoris score.

[1] = 12 months after treatment-baseline, FAS
[2] = 12 months after treatment-baseline, PP
[3] = FAS, 12 months after treatment-treatment

## CC(=O)Oc1ccccc1C(=O)O [Control group, aspirine]
[1]
  change of chest tightness score 9, number of patients: 5
  change of chest tightness score 9, percent of patients: (0.29%)
  change of chest tightness score −3, number of patients: 83
  change of chest tightness score −3, percent of patients: (4.86%)
  change of chest tightness score −6, number of patients: 3
  change of chest tightness score −6, percent of patients: (0.18%)
  change of chest tightness score −9, number of patients: 0
  change of chest tightness score −9, percent of patients: (0.00%)
[2]
  change of chest pain score 0, number of patients: 760
  change of chest pain score 0, percent of patients: (54.36%)
  change of chest pain score 3, number of patients: 455
  change of chest pain score 3, percent of patients: (32.55%)
  change of chest pain score 6, number of patients: 131
  change of chest pain score 6, percent of patients: (9.37%)
  change of chest pain score 9, number of patients: 5
  change of chest pain score 9, percent of patients: (0.36%)
  change of chest pain score −3, number of patients: 45
  change of chest pain score −3, percent of patients: (3.22%)
  change of chest pain score −6, number of patients: 2
  change of chest pain score −6, percent of patients: (0.14%)
  change of chest tightness score 0, number of patients: 721
  change of chest tightness score 0, percent of patients: (51.54%)
  change of chest tightness score 3, number of patients: 539
  change of chest tightness score 3, percent of patients: (38.53%)
  change of chest tightness score 6, number of patients: 79
  change of chest tightness score 6, percent of patients: (5.65%)
  change of chest tightness score 9, number of patients: 4
  change of chest tightness score 9, percent of patients: (0.29%)
  change of chest tightness score −3, number of patients: 54
  change of chest tightness score −3, percent of patients: (3.86%)
  change of chest tightness score −6, number of patients: 2
  change of chest tightness score −6, percent of patients: (0.14%)
  change of chest tightness score −9, number of patients: 0
  change of chest tightness score −9, percent of patients: (0.00%)
FAS
  chest pain score 0, number of patients: 858
  chest pain score 0, percent of patients: (49.94%)
  chest pain score 3, number of patients: 607
  chest pain score 3, percent of patients: (35.33%)
  chest pain score 6, number of patients: 248
  chest pain score 6, percent of patients: (14.44%)
  chest pain score 9, number of patients: 5
  chest pain score 9, percent of patients: (0.29%)
  chest tightness score 0, number of patients: 858
  chest tightness score 0, percent of patients: (49.94%)
  chest tightness score 3, number of patients: 607
  chest tightness score 3, percent of patients: (35.33%)
  chest tightness score 6, number of patients: 248
  chest tightness score 6, percent of patients: (14.44%)
  chest tightness score 9, number of patients: 5
  chest tightness score 9, percent of patients: (0.29%)
PP
  chest pain score 0, number of patients: 725
  chest pain score 0, percent of patients: (51.67%)
  chest pain score 3, number of patients: 501
  chest pain score 3, percent of patients: (35.71%)
  chest pain score 6, number of patients: 176
  chest pain score 6, percent of patients: (12.54%)
  chest pain score 9, number of patients: 1
  chest pain score 9, percent of patients: (0.07%)
  chest tightness score 0, number of patients: 725
  chest tightness score 0, percent of patients: (51.67%)
  chest tightness score 3, number of patients: 501
  chest tightness score 3, percent of patients: (35.71%)
  chest tightness score 6, number of patients: 176
  chest tightness score 6, percent of patients: (12.54%)
  chest tightness score 9, number of patients: 1
  chest tightness score 9, percent of patients: (0.07%)
[3]
  change of short breath 0, % of patients: (55.85%)
  change of short breath 2, % of patients: (32.92%)
  change of short breath 2, number of patients: 563
  change of short breath 4, % of patients: (4.09%)
  change of short breath 4, number of patients: 70
  change of short breath 6, % of patients: (0.70%)
  change of short breath 6, number of patients: 12
  change of short breath −2, % of patients: (6.32%)
  change of short breath −2, number of patients: 108
  change of short breath −4, % of patients: (0.12%)
  change of short breath −4, number of patients: 2
FAS, 1 month after treatment
  distribution of total score of TCM symptom: Medium, number of patients: 675
  distribution of total score of TCM symptom: Medium, percentage of patients: (40.11%)
  distribution of total score of TCM symptom: Mild, number of patients: 989
  distribution of total score of TCM symptom: Mild, percentage of patients: (58.76%)
  distribution of total score of TCM symptom: Severe, number of patients: 19
  distribution of total score of TCM symptom: Severe, percentage of patients: (1.13%)
  fatigue score 0, % of patients: (24.05%)
  fatigue score 0, number of patients: 413
  fatigue score 2, % of patients: (60.75%)
  fatigue score 2, number of patients: 1043
  fatigue score 4, % of patients: (13.86%)
  fatigue score 4, number of patients: 238
  fatigue score 6, % of patients: (1.34%)
  fatigue score 6, number of patients: 23
  pale complexion score 0, number of patients: 713
  pale complexion score 0, percent of patients: (41.53%)
  pale complexion score 1, number of patients: 726
  pale complexion score 1, percent of patients: (42.28%)
  pale complexion score 2, number of patients: 245
  pale complexion score 2, percent of patients: (14.27%)
  pale complexion score 3, number of patients: 33
  pale complexion score 3, percent of patients: (1.92%)
  palpitation score 0, number of patients: 427
  palpitation score 0, percent of patients: (24.87%)
  palpitation score 1, number of patients: 1
  palpitation score 1, percent of patients: (0.06%)
  palpitation score 2, number of patients: 834
  palpitation score 2, percent of patients: (48.57%)
  palpitation score 4, number of patients: 398
  palpitation score 4, percent of patients: (23.18%)
  palpitation score 6, number of patients: 57
  palpitation score 6, percent of patients: (3.32%)
  short breath score 0, % of patients: (21.14%)
  short breath score 0, number of patients: 363
  short breath score 3, % of patients: (54.22%)
  short breath score 3, number of patients: 931
  short breath score 6, % of patients: (23.88%)
  short breath score 6, number of patients: 410
  short breath score 9, % of patients: (0.76%)
  short breath score 9, number of patients: 13
  spontaneous perspiration score 0, number of patients: 603
  spontaneous perspiration score 0, percent of patients: (35.12%)
  spontaneous perspiration score 1, number of patients: 879
  spontaneous perspiration score 1, percent of patients: (51.19%)
  spontaneous perspiration score 2, number of patients: 215
  spontaneous perspiration score 2, percent of patients: (12.52%)
  spontaneous perspiration score 3, number of patients: 20
